13 compounds from patent US20250214991A1 (Oncopia Therapeutics, Inc. d/b/a/ SK Life Science Labs, priority 2022, published 2025) can be followed below.

The target of assay [1] is T1, IKZF2 (Homo sapiens (Human), UniProt Q96SW2+Q9UKS7). In words: In vitro IKZF2 Western Blot Assay in Jurkat cells. The assay is classed as cell-based. To be noted: 24 hrs; for inhibition at 0.001 µM: read-out: IKZF2 degradation (%) @ μM 0.001; for inhibition at 0.01 µM: read-out: IKZF2 degradation (%) @ μM 0.01; for inhibition at 0.1 µM: read-out: IKZF2 degradation (%) @ μM 0.1; for inhibition at 1 µM: read-out: IKZF2 degradation (%) @ μM 1; for inhibition at 10 µM: read-out: IKZF2 degradation (%) @ μM 10. The procedure: In vitro IKZF2 Western Blot Assay Jurkat cells (ATCC, Cat #HB-8065) were cultured in RPMI1640+10% FBS+1% P/S. Cells were treated at desired compound concentrations (0.001, 0.01, 0.1, 1, and 10 μM) and DMSO as vehicle control for 24 hrs. After 24 hr of treatment cells were collected by centrifugation and lysed in RIPA lysis buffer on ice for 10 min. After assessing protein concentration by BCA assay (Pierce), equal amounts of protein for each sample were loaded into 4-12% Bis-Tris gels (Invitrogen), transferred to PVDF membranes and immunoblotted with antibodies against IKZF2 and Actin (Cell Signaling). Membranes were developed on an Odyssey detection system (LI-COR Biosciences) after incubation with IRDye800-labeled goat anti-rabbit IgG and IRDye680-labeled goat anti-mouse IgG (LI-COR) secondary antibodies. Band intensities were quantified using ImageStudio software. Data was further analyzed using XLfit. Percentage of IKZF2 protein degradation: A (>50%); B (30-50%); C(<30%) (Table 2).
T1 sequence (Q9UKS7 whole entry): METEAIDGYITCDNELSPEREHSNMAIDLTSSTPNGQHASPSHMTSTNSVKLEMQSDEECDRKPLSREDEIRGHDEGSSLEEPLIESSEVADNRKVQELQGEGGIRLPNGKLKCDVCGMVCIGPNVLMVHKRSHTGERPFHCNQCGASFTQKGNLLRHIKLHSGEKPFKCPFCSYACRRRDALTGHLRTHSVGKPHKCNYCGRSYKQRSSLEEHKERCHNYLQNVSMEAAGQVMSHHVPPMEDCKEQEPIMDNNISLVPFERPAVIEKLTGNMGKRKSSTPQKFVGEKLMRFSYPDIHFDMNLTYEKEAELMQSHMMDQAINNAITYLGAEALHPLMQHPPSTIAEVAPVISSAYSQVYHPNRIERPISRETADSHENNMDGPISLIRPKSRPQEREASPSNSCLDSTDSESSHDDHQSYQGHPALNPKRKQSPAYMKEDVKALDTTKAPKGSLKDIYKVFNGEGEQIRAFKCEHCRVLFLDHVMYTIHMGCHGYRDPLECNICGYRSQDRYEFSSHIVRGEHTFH
T1 sequence (Q96SW2 whole entry): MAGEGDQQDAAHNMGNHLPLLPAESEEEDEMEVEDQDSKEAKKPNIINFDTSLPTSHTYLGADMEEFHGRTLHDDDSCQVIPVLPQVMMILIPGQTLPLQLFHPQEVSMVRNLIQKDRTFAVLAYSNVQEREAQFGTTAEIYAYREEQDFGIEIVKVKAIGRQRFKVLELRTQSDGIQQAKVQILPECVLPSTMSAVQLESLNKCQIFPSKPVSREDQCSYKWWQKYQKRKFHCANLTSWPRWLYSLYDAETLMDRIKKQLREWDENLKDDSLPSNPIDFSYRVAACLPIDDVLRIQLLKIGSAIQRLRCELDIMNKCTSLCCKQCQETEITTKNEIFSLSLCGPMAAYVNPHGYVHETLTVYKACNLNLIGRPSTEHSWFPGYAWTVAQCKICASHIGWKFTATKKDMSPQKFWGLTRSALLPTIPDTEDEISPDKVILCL
T1 sequence (Q16531 2-1140 partner): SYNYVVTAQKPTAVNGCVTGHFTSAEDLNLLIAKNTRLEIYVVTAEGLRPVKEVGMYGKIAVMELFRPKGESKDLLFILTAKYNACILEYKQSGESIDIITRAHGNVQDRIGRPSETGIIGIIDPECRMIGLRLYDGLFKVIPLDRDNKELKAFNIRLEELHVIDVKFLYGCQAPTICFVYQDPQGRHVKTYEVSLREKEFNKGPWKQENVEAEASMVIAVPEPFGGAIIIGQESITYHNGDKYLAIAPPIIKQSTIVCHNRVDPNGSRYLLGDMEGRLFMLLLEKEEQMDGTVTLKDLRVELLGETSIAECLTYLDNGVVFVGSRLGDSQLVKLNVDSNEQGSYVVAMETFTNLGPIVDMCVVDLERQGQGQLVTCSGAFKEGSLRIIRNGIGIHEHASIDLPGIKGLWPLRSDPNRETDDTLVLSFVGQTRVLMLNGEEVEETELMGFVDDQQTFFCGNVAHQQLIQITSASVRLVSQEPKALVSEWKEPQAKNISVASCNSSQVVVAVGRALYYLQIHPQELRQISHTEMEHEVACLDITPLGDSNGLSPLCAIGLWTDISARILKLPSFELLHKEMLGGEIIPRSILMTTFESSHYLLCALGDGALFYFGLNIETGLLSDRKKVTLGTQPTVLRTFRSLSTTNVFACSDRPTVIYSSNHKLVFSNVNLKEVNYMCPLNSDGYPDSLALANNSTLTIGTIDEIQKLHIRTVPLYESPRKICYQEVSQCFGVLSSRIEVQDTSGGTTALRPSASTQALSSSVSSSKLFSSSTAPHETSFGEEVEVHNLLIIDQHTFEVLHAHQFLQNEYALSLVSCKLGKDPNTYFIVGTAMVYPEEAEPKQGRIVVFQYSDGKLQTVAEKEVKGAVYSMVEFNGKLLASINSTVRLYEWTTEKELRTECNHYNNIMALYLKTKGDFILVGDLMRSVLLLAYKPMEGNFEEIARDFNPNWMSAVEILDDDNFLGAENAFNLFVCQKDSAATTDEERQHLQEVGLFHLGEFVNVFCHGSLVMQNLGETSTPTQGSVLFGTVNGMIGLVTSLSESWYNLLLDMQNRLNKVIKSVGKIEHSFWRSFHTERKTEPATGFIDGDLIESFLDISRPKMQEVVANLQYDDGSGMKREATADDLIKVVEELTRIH
(A western blot detects proteins with antibodies after separation by electrophoresis.)

For assay [2], the target named is CRBN/DDB1 (Homo sapiens (Human), UniProt Q96SW2). In words: IC50 measurements for binding to CRBN/DDB1 (HTRF). To be noted: His tagged CRBN+DDB, Cy5-labeled Thalidomide probe, one hour. In a few lines:
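HTRF competition binding with 2 nM His-tagged CRBN-DDB1 complex, 60 nM Cy5-thalidomide probe and 0.4 nM anti-His Tb cryptate in 50 mM HEPES pH 7.5, 1 mM TCEP, 0.01% Brij-35, 50 mM NaCl, 0.1% BSA. Read after 1 h at room temperature; IC50 from four-parameter dose-response fit.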
(Time-resolved FRET reads energy transfer from a long-lived donor to a nearby acceptor.)

The target of assay [3] is T1, IKZF2. In words: In vitro IKZF2 HiBit Assay (HEK293T Flp-in-HiBiT cells). To be noted: HEK293T Flp-in-HiBiT cells, 6 hrs incubation; for DC50: read-out: IKZF2 HiBit DC50; for Dmax: HEK-293T, read-out: IKZF2 HiBit Dmax (%). The class given is cell-based. In a few lines:
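HEK293T Flp-in cells carrying an endogenous N-terminal HiBiT tag on IKZF2 were exposed to compound for 6 h at 0.1% DMSO. The dilution series was 11 doses at 3-fold, diluted from 1 mM. Nano-Glo HiBiT lytic luminescence, normalized to DMSO, gave DC50 for 50% degradation and Dmax across the concentration range, both reported in letter bins.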
For orientation: HiBiT is a short tag that completes a luciferase, so light tracks the accessible tagged protein.

The target of assay [4] is T1, IKZF2. In words: In vitro IKZF2 FACS Assay in Jurkat cells. The assay is classed as cell-based. To be noted: 24 hrs; for DC50: half maximal degradation concentration; for Dmax: maximal degradation percentage. Here is the method:
In vitro IKZF2 FACS Assay
DC50, A: <1 nM; B: 1-10 nM; C: 10-100 nM; D: 100-1000 nM; E: >1000 nM. Dmax, A: >80%; B: 60-80%; C: 40-60%; D: 20-40%; E: <20%.

Assay [5] addresses IKZF1 (Homo sapiens (Human), UniProt Q13422+Q96SW2). In words: In vitro IKZF1 HiBit Assay (HEK293T Flp-in-HiBiT-IKZF1 stable cell line). The assay is classed as cell-based. To be noted: HEK293T Flp-in-HiBiT-IKZF1 stable cell line, 6 hrs incubation; for DC50: read-out: IKZF1 HiBit DC50; for Dmax: HEK-293T, read-out: IKZF1 HiBit Dmax (%). In a few lines:
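HEK293T Flp-in cells carrying N-terminal HiBiT-tagged IKZF1 were exposed to compound (0.1% DMSO) for 6 h at 3000 cells/well. HiBiT luminescence was read after lytic LgBiT detection. DC50 and Dmax were taken from DMSO-normalized dose-response curves.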

Usually IC50 stands for the concentration at which inhibition is half-maximal.

Chain of CRBN/DDB1 (Q96SW2 whole entry, species assumed): as the sequence (Q96SW2 whole entry) above
Chain of CRBN/DDB1 (Q16531 whole entry partner, species assumed): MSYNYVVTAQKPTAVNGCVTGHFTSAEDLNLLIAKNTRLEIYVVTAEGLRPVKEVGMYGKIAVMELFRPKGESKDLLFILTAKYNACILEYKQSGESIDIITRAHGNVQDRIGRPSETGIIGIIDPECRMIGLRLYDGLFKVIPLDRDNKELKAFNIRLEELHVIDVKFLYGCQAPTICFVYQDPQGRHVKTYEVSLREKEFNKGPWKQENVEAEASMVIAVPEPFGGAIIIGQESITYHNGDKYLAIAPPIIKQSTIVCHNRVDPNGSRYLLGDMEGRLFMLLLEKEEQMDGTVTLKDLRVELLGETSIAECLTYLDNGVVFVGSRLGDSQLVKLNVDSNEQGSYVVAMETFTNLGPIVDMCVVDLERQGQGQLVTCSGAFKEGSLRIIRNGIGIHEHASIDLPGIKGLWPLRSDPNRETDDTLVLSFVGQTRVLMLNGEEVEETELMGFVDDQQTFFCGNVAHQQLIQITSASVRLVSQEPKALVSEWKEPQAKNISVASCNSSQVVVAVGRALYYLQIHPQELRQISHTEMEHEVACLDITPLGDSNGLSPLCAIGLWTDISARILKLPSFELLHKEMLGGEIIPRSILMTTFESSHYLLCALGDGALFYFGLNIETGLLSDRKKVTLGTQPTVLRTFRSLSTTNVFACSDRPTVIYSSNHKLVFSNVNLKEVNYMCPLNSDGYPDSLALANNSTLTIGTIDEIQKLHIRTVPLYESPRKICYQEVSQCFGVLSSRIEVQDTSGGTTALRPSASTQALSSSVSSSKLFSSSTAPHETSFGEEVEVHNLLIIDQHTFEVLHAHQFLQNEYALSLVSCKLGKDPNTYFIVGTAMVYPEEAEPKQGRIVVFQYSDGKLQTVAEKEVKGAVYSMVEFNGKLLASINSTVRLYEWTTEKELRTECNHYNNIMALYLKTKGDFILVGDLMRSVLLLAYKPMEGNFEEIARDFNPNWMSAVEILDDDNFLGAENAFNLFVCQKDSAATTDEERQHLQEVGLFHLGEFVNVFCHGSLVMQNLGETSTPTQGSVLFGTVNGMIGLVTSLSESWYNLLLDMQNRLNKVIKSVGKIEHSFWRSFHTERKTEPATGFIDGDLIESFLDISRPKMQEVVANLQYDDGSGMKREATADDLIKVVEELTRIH
Chain of IKZF1 (Q13422 whole entry): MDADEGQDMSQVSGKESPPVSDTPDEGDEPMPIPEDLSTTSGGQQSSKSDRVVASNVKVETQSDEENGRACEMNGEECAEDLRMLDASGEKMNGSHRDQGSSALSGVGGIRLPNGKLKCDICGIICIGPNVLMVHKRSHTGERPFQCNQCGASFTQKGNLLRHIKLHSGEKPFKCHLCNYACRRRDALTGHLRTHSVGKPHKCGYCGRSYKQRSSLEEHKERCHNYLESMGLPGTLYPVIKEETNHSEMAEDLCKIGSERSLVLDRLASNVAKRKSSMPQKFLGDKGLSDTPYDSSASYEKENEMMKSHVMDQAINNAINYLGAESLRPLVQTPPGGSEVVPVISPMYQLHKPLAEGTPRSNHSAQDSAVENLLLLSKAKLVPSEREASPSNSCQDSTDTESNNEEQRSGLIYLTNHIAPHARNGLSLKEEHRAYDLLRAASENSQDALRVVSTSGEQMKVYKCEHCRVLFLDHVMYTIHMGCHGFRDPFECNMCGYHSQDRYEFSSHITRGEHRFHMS
Chain of IKZF1 (Q96SW2 whole entry): as the sequence (Q96SW2 whole entry) above
Chain of IKZF1 (Q16531 2-1140 partner): as the sequence (Q16531 2-1140 partner) above

`CC(NCc1cc(-c2ccc3c(c2)CN(C2CCC(=O)NC2=O)C3=O)c2nccn2c1)c1ccccc1` (centres unmarked) [Example 45, 3-(1-oxo-5-(6-(((1-phenylethyl)amino)methyl)imidazo[1,2-a]pyridin-8-yl)isoindolin-2-yl) piperidine-2,6-dione]: in assay [1], the inhibition at 0.001 µM lay in the range of 30 to 50%, the inhibition at 0.01 µM was less than 30%, the inhibition at 0.1 µM was less than 30% and the inhibition at 1 µM is more than 50%. Further, in assay [1], the inhibition at 10 µM is less than 30%. Besides, the IC50 in assay [2] fell in the range of 100 to 500 nM.
With `CC1(C)CCN(Cc2cc(-c3ccc4c(c3)CN(C3CCC(=O)NC3=O)C4=O)c3nccn3c2)CC1` (centres unmarked) [Example 36, 3-(5-(6-((4,4-dimethylpiperidin-1-yl)methyl)imidazo[1,2-a]pyridin-8-yl)-1-oxoisoindolin-2-yl) piperidine-2,6-dione], in assay [1], the inhibition at 0.001 µM was 30 to 50%, the inhibition at 0.01 µM lay within 30 to 50%, the inhibition at 0.1 µM is less than 30% and the inhibition at 1 µM is less than 30%. For the same compound, the inhibition at 10 µM in assay [1] was less than 30%. In assay [2], this compound showed an IC50 of 100 to 500 nM.
For the compound `O=C1CCC(N2Cc3cc(-c4cc(CNCCc5c(F)cccc5F)cn5ccnc45)ccc3C2=O)C(=O)N1` (centres unmarked) [Example 39, 3-(5-(6-(((2,6-difluorophenethyl)amino)methyl)imidazo[1,2-a]pyridin-8-yl)-1-oxoisoindolin-2-yl) piperidine-2,6-dione], in assay [1], the inhibition at 0.001 µM was less than 30%, the inhibition at 0.01 µM is less than 30%, the inhibition at 0.1 µM was less than 30% and the inhibition at 1 µM was less than 30%. For the same compound, the inhibition at 10 µM in assay [1] is less than 30%. Moreover, the IC50 in assay [2] was less than 100 nM.
In the case of `O=C1CCC(N2Cc3cc(-c4cc(CNCCc5ccccc5C(F)(F)F)cn5ccnc45)ccc3C2=O)C(=O)N1` (centres unmarked) [Example 43], in assay [1], the inhibition at 0.001 µM is less than 30%, the inhibition at 0.01 µM was less than 30%, the inhibition at 0.1 µM is less than 30% and the inhibition at 1 µM was less than 30%. Further, in assay [1], the inhibition at 10 µM is less than 30%. Besides, the IC50 in assay [2] is less than 100 nM.
Take `O=C1CCC(N2Cc3cc(-c4cc(CNCc5ccccc5Cl)cn5ccnc45)ccc3C2=O)C(=O)N1` (centres unmarked) [Example 38, 3-(5-(6-(((2-chlorobenzyl)amino)methyl)imidazo[1,2-a]pyridin-8-yl)-1-oxoisoindolin-2-yl) piperidine-2,6-dione]: in assay [1], the inhibition at 0.001 µM is less than 30%, the inhibition at 0.01 µM was less than 30%, the inhibition at 0.1 µM was less than 30% and the inhibition at 1 µM is less than 30%. In addition, the inhibition at 10 µM in assay [1] was less than 30%. In addition, the IC50 in assay [2] was in the range of 100 to 500 nM.
Take `O=C1CCC(N2Cc3cc(-c4cc(CNCCc5c(Cl)cccc5Cl)cn5ccnc45)ccc3C2=O)C(=O)N1` (centres unmarked) [Example 41, 3-(5-(6-(((2,6-dichlorophenethyl)amino)methyl)imidazo[1,2-a]pyridin-8-yl)-1-oxoisoindolin-2-yl) piperidine-2,6-dione]: in assay [1], the inhibition at 0.001 µM is less than 30%, the inhibition at 0.01 µM is less than 30%, the inhibition at 0.1 µM is less than 30% and the inhibition at 1 µM was less than 30%. In assay [1], the inhibition at 10 µM is less than 30%. The compound further registered an IC50 in assay [2] of 100 to 500 nM.
Regarding `O=C1CCC(N2Cc3cc(-c4cc(CNCCc5ccccc5Cl)cn5ccnc45)ccc3C2=O)C(=O)N1` (centres unmarked) [Example 44, 3-(5-(6-(((2-chlorophenethyl)amino)methyl)imidazo[1,2-a]pyridin-8-yl)-1-oxoisoindolin-2-yl) piperidine-2,6-dione], in assay [1], the inhibition at 0.001 µM is less than 30%, the inhibition at 0.01 µM is less than 30%, the inhibition at 0.1 µM was in the range of 30 to 50% and the inhibition at 1 µM was less than 30%. For the same compound, in assay [1], the inhibition at 10 µM lay in the range of 30 to 50%. Also, in assay [2], the IC50 lay within 100 to 500 nM.
With `O=C1CCC(N2Cc3cc(-c4cc(CN5CCCC5c5ccccc5)cc5cncn45)ccc3C2=O)C(=O)N1` (centres unmarked) [Example 26, 3-(1-oxo-5-(7-((2-phenylpyrrolidin-1-yl)methyl)imidazo[1,5-a]pyridin-5-yl)isoindolin-2-yl) piperidine-2,6-dione], in assay [1], the inhibition at 0.001 µM was less than 30%, the inhibition at 0.01 µM is less than 30%, the inhibition at 0.1 µM lay within 30 to 50% and the inhibition at 1 µM lay in the range of 30 to 50%. For the same compound, the inhibition at 10 µM in assay [1] was 30 to 50%. This compound showed an IC50 in assay [2] of 100 to 500 nM.
For `Nc1nn(C2CC2)c2c(CN3CCCC3)cc(-c3ccc4c(c3)CN(C3CCC(=O)NC3=O)C4=O)nc12` (centres unmarked) [Example 210, 3-(5-(3-amino-1-cyclopropyl-7-(pyrrolidin-1-ylmethyl)-1H-pyrazolo[4,3-b]pyridin-5-yl)-1-oxoisoindolin-2-yl) piperidine-2,6-dione], the DC50 fell in the range of 1 to 10 nM in assay [3], 1 to 10 nM in assay [4] and 100 to 1000 nM in assay [5]. The Dmax in assay [3] is more than 80%; in assay [4], more than 80%; in assay [5], 40 to 60%. The compound also yielded an IC50 in assay [2] of 500 to 1000 nM.
`Cn1cc2nc(-c3ccc4c(c3)CN(C3CCC(=O)NC3=O)C4=O)cc(CN3CCCC3)c2n1` (centres unmarked) [Example 314, 3-(5-(2-methyl-7-(pyrrolidin-1-ylmethyl)-2H-pyrazolo[4,3-b]pyridin-5-yl)-1-oxoisoindolin-2-yl) piperidine-2,6-dione]: the DC50 in assay [3] was 1 to 10 nM; in assay [4] it was 1 to 10 nM; in assay [5] it was 10 to 100 nM. For the same compound, the Dmax is more than 80% in assay [3], more than 80% in assay [4] and 20 to 40% in assay [5]. The compound further yielded an IC50 in assay [2] of 100 to 500 nM.
With `O=C1CCC(N2Cc3cc(-c4cc(CN5CCCC5)c5ncn(C6CCC6)c5n4)ccc3C2=O)C(=O)N1` (centres unmarked) [Example 209, 3-(5-(3-cyclobutyl-7-(pyrrolidin-1-ylmethyl)-3H-imidazo[4,5-b]pyridin-5-yl)-1-oxoisoindolin-2-yl) piperidine-2,6-dione], the DC50 is 1 to 10 nM in assay [3], 10 to 100 nM in assay [4] and more than 10000 nM in assay [5]. Also, the results for the Dmax in assay [3], in assay [4] and in assay [5] were more than 80%, more than 80% and less than 20%, respectively. The IC50 in assay [2] was 1000 to 5000 nM.
On to `O=C1CCC(N2Cc3c(ccc(-c4cc(CN5CCCC5)c5ccn(C6CS(=O)(=O)C6)c5n4)c3Cl)C2=O)C(=O)N1` (centres unmarked) [Example 230, 3-(4-chloro-5-(1-(1,1-dioxidothietan-3-yl)-4-(pyrrolidin-1-ylmethyl)-1H-pyrrolo[2,3-b]pyridin-6-yl)-1-oxoisoindolin-2-yl) piperidine-2,6-dione], for which the values for the DC50 in assay [3], in assay [4] and in assay [5] were 1 to 10 nM, 1 to 10 nM and more than 10000 nM, respectively. Besides, the Dmax in assay [3] was 60 to 80%; in assay [4], more than 80%; in assay [5], less than 20%. The compound further returned an IC50 in assay [2] of 100 to 500 nM.
Regarding `O=C1CCC(N2Cc3cc(-c4cc(CN5CCC(O)C5)c5ccn(C6COC6)c5n4)ccc3C2=O)C(=O)N1` (centres unmarked) [Example 158, 3-(5-(4-((3-hydroxypyrrolidin-1-yl)methyl)-1-(oxetan-3-yl)-1H-pyrrolo[2,3-b]pyridin-6-yl)-1-oxoisoindolin-2-yl) piperidine-2,6-dione], the DC50 in assay [3] is 10 to 100 nM; in assay [4], 10 to 100 nM; in assay [5] it was more than 10000 nM. In addition, the Dmax is 60 to 80% in assay [3], more than 80% in assay [4] and less than 20% in assay [5]. The IC50 in assay [2] was in the range of 100 to 500 nM.
